Measurements from patent US20120225862A1, “HETEROARYL BENZAMIDES, COMPOSITIONS AND METHODS OF USE” (AUCKLAND UNIVSERVICES LIMITED, priority 2009, published 2012).

How the values were obtained:
[1] = test system: RCC4; assay: XTT IC50 / viability assay, RCC4 cells; assay type: cell-based, human
How it was run: (§1)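 RCC4 parental and VHL-reintroduced RCC4/VHL cells (DMEM, 10% FCS) treated with serially diluted drug for four days. Viability by XTT (0.3 mg/mL) with N-methyl dibenzopyrazine methyl sulfate, 1–2 h at 37 °C, absorbance 450 nm; IC50 by linear interpolation.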

[2] = test system: RCC4/VHL; assay: XTT IC50 assay, selectivity RCC4 versus RCC4 with VHL-reintroduced; assay type: cell-based, human; details: selectivity ratio of XTT IC50 values, RCC4 vs RCC4/VHL
How it was run: as §1

[3] = test system: RCC4; assay: 3H-2-deoxyglucose uptake, RCC4; assay type: cell-based, human
Method: One hundred thousand cells were plated into 6-well plates. The following day, the cells were treated with vehicle or drug and incubated for the indicated time. Cells were washed twice in phosphate buffered saline and low glucose media was added for 30 minutes. Cells were then incubated with 0.5 microCi of tritiated-2-deoxyglucose and incubated for an hour at 37° C. Cells were washed twice in PBS and then lysed in 0.2 N NaOH and 0.2% SDS. Lysates were transferred to scintillation tubes with scintillation fluid and quantified by scintillation counter.
One hundred thousand cells were plated per well in a six-well plate. The next day, cells were treated with the indicated concentration of drug and incubated for the indicated time. Cells were then washed twice with phosphate-buffered saline, incubated in low-glucose medium for 30 minutes, and ^3H-2-deoxyglucose (0.5 μCi) was added in 1 ml of glucose-free media for an additional hour. Cells were washed twice in PBS and lysed (0.2 N NaOH and 0.2% sodium dodecyl sulfate). Glucose uptake was quantified with a scintillation counter.

[4] = molecular target: T1, Abl (Homo sapiens, UniProt P00519); assay: In vitro kinase activity (Millipore KinaseProfiler): Abl; assay type: biochemical; details: no head or unit printed
T1 construct: purchased Millipore (KinaseProfiler service)
T1 sequence (P00519 whole entry, species assumed): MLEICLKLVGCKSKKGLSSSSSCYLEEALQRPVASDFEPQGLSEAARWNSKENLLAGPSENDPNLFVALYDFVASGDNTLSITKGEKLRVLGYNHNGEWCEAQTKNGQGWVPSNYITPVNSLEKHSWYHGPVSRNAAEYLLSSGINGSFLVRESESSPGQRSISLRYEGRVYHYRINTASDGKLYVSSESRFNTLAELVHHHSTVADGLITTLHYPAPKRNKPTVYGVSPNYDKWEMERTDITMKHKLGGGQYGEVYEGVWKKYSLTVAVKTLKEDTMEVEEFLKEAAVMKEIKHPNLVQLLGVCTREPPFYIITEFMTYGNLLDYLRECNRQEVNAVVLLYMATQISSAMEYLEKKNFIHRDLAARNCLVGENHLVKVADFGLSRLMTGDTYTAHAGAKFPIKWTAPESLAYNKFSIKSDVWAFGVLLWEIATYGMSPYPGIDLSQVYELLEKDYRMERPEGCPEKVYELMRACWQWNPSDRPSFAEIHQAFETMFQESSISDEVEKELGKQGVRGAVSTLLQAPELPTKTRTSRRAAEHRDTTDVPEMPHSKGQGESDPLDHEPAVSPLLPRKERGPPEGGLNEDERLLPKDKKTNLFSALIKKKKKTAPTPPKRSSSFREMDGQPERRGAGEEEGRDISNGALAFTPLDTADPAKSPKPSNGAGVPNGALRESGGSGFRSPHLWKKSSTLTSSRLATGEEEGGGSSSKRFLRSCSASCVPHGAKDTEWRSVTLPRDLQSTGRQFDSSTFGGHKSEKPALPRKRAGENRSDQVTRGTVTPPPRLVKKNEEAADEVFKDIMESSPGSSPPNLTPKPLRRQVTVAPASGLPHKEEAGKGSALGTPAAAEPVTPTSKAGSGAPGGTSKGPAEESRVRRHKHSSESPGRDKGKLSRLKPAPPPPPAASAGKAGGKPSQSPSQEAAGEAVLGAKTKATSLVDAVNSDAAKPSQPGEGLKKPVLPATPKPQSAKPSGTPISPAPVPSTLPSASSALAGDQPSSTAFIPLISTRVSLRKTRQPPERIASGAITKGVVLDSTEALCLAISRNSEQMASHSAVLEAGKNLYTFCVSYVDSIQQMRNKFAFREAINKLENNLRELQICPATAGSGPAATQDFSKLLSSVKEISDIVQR
Method: (§2) All cells were grown in DMEM+10% FCS. ACHN and ACHN shVHL were a kind gift from George V. Thomas (UCLA). HIF overexpressing clones were described previously. Transfection of RNA oligos were performed with DnarmaFECT Reagent 1 (Dharmcon), according to manufacturer's directions. ON-TARGETplus SMART pools against HIF-1β/ARNT were purchased from Dharmacon. Glut1 was detected with anti-GLUT1 antibody from NeoMarkers/LabVision/Fisher. Pyruvate/lactate levels and hexokinase activity were both measured by fluorometric assay (BioVision and Sigma-Aldrich, respectively). ATP levels were measured by bioluminescence assay (ATP Determination Kit from Molecular Probes/Invitrogen). In vitro kinase activities were performed by Millipore KinaseProfiler. Affi-Gel 10 (BioRad) activated affinity media was coupled to analogs to generate immobilized affinity linkers.
(§3) We next wanted to investigate the differential glucose uptake between RCCs with and without VHL treated with compound 47 that subsequently lead to the selective death of VHL-deficient cells. We first examined the message levels of the two main glucose transporters, GLUT1 and GLUT2 by quantitative real-time PCR. GLUT1 is an inducible, high-affinity glucose transporter, while GLUT2 is the glucose transporter responsible for basal glucose uptake. […] Cells deficient in VHL had very low levels of GLUT2 that could barely be detected (FIG. 3J). […]

[5] = test system: AMPK; assay: In vitro kinase activity (Millipore KinaseProfiler): AMPK; assay type: biochemical; details: no head or unit printed
Method: as §2, §3

[6] = molecular target: T2, CDK1/cyclinB (Homo sapiens, UniProt P06493); assay: In vitro kinase activity (Millipore KinaseProfiler): CDK1/cyclinB; assay type: biochemical; details: no head or unit printed
T2 construct: purchased Millipore (KinaseProfiler service)
T2 sequence (P06493 whole entry, species assumed): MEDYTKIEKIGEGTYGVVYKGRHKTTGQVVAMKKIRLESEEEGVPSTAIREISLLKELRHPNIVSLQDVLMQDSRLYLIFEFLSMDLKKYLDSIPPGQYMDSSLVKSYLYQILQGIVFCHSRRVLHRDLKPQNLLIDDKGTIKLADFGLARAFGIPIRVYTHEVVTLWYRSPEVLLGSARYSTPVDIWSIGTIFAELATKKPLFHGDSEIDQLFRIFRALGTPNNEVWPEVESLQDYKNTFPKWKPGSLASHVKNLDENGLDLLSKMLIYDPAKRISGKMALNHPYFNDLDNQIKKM
T2 sequence (P14635 whole entry partner, species assumed): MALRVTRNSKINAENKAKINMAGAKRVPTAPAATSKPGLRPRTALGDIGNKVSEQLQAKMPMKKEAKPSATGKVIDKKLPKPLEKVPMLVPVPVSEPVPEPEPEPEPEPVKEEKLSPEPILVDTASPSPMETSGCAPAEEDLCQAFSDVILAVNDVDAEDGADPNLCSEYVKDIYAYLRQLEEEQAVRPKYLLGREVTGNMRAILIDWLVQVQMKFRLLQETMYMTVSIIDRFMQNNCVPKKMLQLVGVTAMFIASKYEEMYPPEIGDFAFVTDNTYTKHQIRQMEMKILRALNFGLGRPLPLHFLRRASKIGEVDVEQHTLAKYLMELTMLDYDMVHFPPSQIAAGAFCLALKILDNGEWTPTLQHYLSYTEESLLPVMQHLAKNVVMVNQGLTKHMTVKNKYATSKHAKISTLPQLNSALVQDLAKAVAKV
Method: as §2, §3

[7] = molecular target: T3, Fyn (Homo sapiens, UniProt P06241); assay: In vitro kinase activity (Millipore KinaseProfiler): Fyn; assay type: biochemical; details: no head or unit printed
T3 construct: purchased Millipore (KinaseProfiler service)
Method: as §2, §3

[8] = molecular target: T4, Met (Homo sapiens, UniProt P08581); assay: In vitro kinase activity (Millipore KinaseProfiler): Met; assay type: biochemical; details: no head or unit printed
T4 construct: purchased Millipore (KinaseProfiler service)
T4 sequence (P08581 25-1390): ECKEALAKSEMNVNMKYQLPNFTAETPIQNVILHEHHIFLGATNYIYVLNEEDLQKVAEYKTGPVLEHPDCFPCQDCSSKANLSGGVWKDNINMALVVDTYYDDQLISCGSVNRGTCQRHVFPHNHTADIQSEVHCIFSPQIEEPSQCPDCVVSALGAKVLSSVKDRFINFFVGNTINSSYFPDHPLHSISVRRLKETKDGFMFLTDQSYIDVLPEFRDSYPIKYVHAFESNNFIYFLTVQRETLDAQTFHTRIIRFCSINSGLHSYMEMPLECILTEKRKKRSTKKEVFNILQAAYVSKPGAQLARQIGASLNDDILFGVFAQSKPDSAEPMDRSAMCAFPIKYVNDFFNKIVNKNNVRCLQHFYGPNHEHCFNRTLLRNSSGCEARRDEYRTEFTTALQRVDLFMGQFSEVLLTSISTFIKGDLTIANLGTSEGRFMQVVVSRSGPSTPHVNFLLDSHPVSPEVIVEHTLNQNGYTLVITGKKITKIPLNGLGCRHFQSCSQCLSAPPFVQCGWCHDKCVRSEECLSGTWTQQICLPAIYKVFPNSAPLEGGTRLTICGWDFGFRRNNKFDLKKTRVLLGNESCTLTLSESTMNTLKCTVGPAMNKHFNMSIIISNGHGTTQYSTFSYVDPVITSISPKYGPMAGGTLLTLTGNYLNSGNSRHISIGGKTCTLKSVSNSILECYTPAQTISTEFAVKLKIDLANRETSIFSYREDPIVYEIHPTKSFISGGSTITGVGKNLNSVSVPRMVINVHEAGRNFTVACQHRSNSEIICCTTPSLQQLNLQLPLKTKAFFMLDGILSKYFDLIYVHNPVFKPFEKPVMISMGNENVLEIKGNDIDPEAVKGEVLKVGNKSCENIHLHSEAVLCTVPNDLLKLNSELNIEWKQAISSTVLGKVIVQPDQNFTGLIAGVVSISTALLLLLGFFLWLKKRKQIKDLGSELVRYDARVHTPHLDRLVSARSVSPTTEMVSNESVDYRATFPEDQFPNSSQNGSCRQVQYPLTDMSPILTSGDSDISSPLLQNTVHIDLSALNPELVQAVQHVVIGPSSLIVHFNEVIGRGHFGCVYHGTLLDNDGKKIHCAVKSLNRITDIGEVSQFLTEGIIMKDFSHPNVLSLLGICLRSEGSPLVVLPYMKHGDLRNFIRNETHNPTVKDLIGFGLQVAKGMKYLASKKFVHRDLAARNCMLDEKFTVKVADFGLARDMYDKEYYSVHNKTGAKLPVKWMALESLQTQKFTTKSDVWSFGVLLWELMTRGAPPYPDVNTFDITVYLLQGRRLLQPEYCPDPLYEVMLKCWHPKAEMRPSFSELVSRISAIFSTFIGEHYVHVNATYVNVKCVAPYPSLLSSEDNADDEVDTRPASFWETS
Method: as §2, §3

[9] = molecular target: T5, MKK4 (Mus musculus, UniProt P47809); assay: In vitro kinase activity (Millipore KinaseProfiler): MKK4; assay type: biochemical; details: no head or unit printed
T5 construct: purchased Millipore (KinaseProfiler service)
T5 sequence (P47809 2-397 limits assumed): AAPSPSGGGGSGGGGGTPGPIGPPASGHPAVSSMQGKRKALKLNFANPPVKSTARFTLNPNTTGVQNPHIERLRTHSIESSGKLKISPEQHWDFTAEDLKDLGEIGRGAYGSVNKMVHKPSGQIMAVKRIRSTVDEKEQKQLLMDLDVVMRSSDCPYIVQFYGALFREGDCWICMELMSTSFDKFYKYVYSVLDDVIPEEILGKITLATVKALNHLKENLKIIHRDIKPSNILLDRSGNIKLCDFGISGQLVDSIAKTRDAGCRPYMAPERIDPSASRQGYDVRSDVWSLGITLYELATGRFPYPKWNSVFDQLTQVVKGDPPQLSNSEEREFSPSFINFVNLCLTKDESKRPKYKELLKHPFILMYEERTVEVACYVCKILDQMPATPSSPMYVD
Method: as §2, §3

[10] = molecular target: T6, NEK2 (Homo sapiens, UniProt P51955); assay: In vitro kinase activity (Millipore KinaseProfiler): NEK2; assay type: biochemical; details: no head or unit printed
T6 construct: purchased Millipore (KinaseProfiler service)
T6 sequence (P51955 whole entry, species assumed): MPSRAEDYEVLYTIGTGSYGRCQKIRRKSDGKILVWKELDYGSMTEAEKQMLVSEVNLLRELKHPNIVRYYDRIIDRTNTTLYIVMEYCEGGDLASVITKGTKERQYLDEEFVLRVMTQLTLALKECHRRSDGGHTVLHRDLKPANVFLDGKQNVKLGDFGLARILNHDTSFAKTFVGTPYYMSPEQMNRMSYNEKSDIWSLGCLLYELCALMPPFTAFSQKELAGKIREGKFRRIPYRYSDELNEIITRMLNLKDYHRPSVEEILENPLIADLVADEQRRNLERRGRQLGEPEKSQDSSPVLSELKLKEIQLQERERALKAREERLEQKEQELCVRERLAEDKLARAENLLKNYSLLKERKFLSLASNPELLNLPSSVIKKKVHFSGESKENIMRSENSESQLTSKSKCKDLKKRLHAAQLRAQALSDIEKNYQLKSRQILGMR
Method: as §2, §3

[11] = molecular target: T7, PAK2 (Homo sapiens, UniProt Q13177); assay: In vitro kinase activity (Millipore KinaseProfiler): PAK2; assay type: biochemical; details: no head or unit printed
T7 construct: purchased Millipore (KinaseProfiler service)
T7 sequence (Q13177 whole entry, species assumed): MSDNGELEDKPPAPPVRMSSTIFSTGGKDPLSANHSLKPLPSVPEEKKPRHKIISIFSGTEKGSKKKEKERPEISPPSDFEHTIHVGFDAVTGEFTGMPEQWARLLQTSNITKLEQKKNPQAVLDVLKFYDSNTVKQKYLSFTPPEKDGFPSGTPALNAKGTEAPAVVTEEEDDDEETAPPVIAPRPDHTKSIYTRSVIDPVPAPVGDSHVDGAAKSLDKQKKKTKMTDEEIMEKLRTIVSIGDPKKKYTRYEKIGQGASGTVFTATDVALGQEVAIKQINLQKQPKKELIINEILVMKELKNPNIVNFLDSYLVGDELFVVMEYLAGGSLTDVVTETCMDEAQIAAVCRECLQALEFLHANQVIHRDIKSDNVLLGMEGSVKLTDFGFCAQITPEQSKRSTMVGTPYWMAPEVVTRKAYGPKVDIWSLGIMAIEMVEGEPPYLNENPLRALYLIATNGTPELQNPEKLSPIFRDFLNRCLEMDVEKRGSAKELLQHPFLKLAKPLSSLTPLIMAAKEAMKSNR
Method: as §2, §3

[12] = molecular target: T8, ROCK-I (Homo sapiens, UniProt Q13464); assay: In vitro kinase activity (Millipore KinaseProfiler): ROCK-I; assay type: biochemical; details: no head or unit printed
T8 construct: purchased Millipore (KinaseProfiler service)
Method: as §2, §3

In the case of `CC(C)(C)c1ccc(S(=O)(=O)NCc2ccc(C(=O)Nc3cccnc3)cc2)cc1` [Example 38, 4-((4-tert-Butylphenylsulfonamido)methyl)-N-(pyridin-3-yl)benzamide], the IC50 ([1]; Homo sapiens, RCC4, 96 h, XTT assay, four days) is reported as less than 1000 nM, the “number of RCC4 cells compared to RCC4/VHL (XTT metabolic activity)” value ([1]; four days of treatment, concentration-dependent, FIG. 2A) is reported as “significant decrease in the number of RCC4 cells” and the “Ratio (RCC4:RCC/VHL)” value [2] is reported as “c (“c” reflects a ratio of >100)”. For the same compound, the “glucose uptake in VHL-deficient RCC4 cells” value ([3]; 3H-2-deoxyglucose, two days of treatment, 5 μM) was “impaired glucose uptake”, the “concentration dependence of glucose uptake inhibition in RCC4” value ([3]; increasing concentrations, FIG. 3C) was “dose-dependent manner” and the Abl kinase activity [4] was 108. For the same compound, the AMPK kinase activity [5] was 92%, the CDK1/cyclinB kinase activity [6] was 96 and the Fyn kinase activity [7] was 91%. The Met kinase activity [8] was 105, the MKK4 kinase activity [9] was 128 and the NEK2 kinase activity [10] was 103. For the same compound, the PAK2 kinase activity [11] was 97% and the ROCK-I kinase activity [12] was 74%.
